The values that follow come from US8980933B2, “Combretastatin analogs for use in the treatment of cancer” (Universitat Bayreuth, priority 2010, dated 2015).

Series [1] in a line: Toxicity / tolerability in mice. It counts as in vivo. The procedure: Prior to testing compound 5b, healthy animals of this type were treated with an ascending range of doses of 5b in order to establish a toxicity profile. […] Suitable dosages were then administered in further tests in a nude mouse xenograft model of a pair of germ cell tumor cell lines, the chemoresistant cell line 1411HP and the chemosensitive cell line H12.1. These cell lines retain their individual in vitro chemosensitivities to cisplatin when grown as xenograft tumors and so may serve as a model of the clinical situation of resistance to chemotherapy (Mueller et al. Cancer Res. 2003; Mueller et al. Tumor Biol. 2006).
Compounds 5b, 6b and 6f were also tested in terms of feasibility of oral administration. Mice received a single dose of 40 mg/kg body weight of 5b, 6b or 6f, respectively. […] Then compounds 6b or 6f were given peroral as dual-dose application on two consecutive days in accordance to the i.p. treatment scheme used for the regression trials but with a 2-fold higher dose of 2×40 mg/kg body weight.

Series [2] has as its system HL-60 cells. Description: Mitochondrial membrane assay (JC-1), HL-60. The conditions noted are these: 5 μM, red/green fluorescence ratio relative to untreated controls (100%), mean ± SD. It is filed as cell-based, human. As for the experimental part: Values represent means of four independent experiments±standard deviation.
Changes in mitochondrial membrane potential were determined by the Mitochondrial Membrane Detection Kit (Stratagene, La Jolla, Calif., USA) according to the manufacturer's procedure. 72 h following treatment with 5 μM of the test compounds, cell samples were centrifuged at 400 g for 5 min. The pellets were resuspended in 500 μL diluted JC-1 solution, incubated at 37° C. for 15 min (HL-60) and then centrifuged again for 5 min at 400 g. After washing, the pellets were resuspended in 100 μL PBS and transferred into the wells of a black 96-well plate. The red (λex=585 nm, λem=590 nm) and green (λex=510 nm, λem=527 nm) fluorescence intensities were measured and their ratio was calculated.

Series [3] deals with HL-60 cells. Description: TUNEL assay. It is filed as cell-based, human. To be noted: 10 μM; 16 h incubation.
For series [4], the system named is 1411HP germ cell tumor xenografts. Description: Nude mouse xenograft model of resistant 1411HP. It counts as in vivo. The conditions noted are these: 60 mg/kg peroral; 24 h.
Series [5] in a line: Solubility in physiological saline solution. To be noted: saline or isotonic, read-out: concentration achieved in physiological saline solution. It counts as physicochemical. As for the experimental part:
(§1) For the biotests compound 5b was dissolved in physiological saline solution. […] Customarily, in vivo applications to animals require only concentrations up to 3 mM. In order to check the chemical stability of such solutions of 5b they were stored for one month and subsequently used in in vitro tests alongside freshly prepared solutions of the same concentrations of 5b.

Series [6] is described as follows: Chemical stability of solutions stored for one month, retested in vitro. It is filed as physicochemical. The conditions noted are these: solution stored for one month vs freshly prepared; tubulin polymerization and SRB assays. The procedure: as §1
In general terms: Sulforhodamine B stains cellular protein and so reports cell mass.

Another series concerns tubulin. Description: Tubulin Polymerization assay (fluorescence kit). It counts as biochemical. As for the experimental part:
Analysis of tubulin polymerization was performed using the Tubulin Polymerization Assay Kit (Cytoskeleton, USA) according to manufacturer's instructions. The assay is fluorescence-based and tubulin polymerization was followed by measuring RFU (relative fluorescence units) on the SpectraFluor Plus (Tecan, Switzerland) using the following filters: excitation 360 nm, emission 465 nm.

Series [7] concerns H12.1 germ cell tumor cell line. Description: SRB-cytotoxicity assay, H12.1. It counts as cell-based. To be noted: Homo sapiens, 96 h. As for the experimental part:
The cytotoxic activity of 5b was established by standard colorimetric tests (SRB- and MTT-assays) against various tumor cell lines of different entities. For the SRB cytotoxicity assay, dose-response curves of the testicular germ cell tumor cell lines exposed to drug concentrations of 0.001-10 μM were established using the sulforhodamine-B (SRB) microcuiture colorimetric assay (Papazisis et al. Optimization of the sulforhodamine B colorimetric assay. J. Immunol. Methods 1997, 208, 151-158) and performed as described in: Müller et al. Failure of activation of caspase-9 induces a higher threshold for apoptosis and cisplatin resistance in testicular cancer. Cancer Res. 2003, 63, 513-521. Briefly, cells were seeded into 96-well plates on day 0, at cell densities previously determined to ensure exponential cell growth during the period of the experiment. On day 1, cells were treated with the drugs dissolved in medium to give the appropriate concentrations for indicated times and the percentage of surviving cells relative to untreated controls was determined on day 5.

“Also recorded” adds a separate entry of the source.

Regarding `COc1ccc(-c2c(-c3cc(Br)c(OC)c(OC)c3)ncn2C)cc1N` [compound 6b, 1-methyl-5-(3-amino-4-methoxyphenyl)-4-(3-bromo-4,5-dimethoxyphenyl)-imidazole], the “toxicity after oral administration” value in series [1] (peroral dual-dose 2×40 mg/kg on two consecutive days) was “well tolerated and induced only a transient and marginal loss of body weight”; in series [1] (single dose 40 mg/kg oral) it was “No signs of toxicity were observed”; in series [1] (single dose 60 mg/kg peroral), “No signs of toxicity were observed”. Moreover, the “Intact mitochondria [%] in HL-60 cells after 72 h” value in the series with HL-60 cells [2] amounted to 66 ± 10%. Further, the “apoptotic (TUNEL-positive) cells” value in the series on HL-60 cells [3] is given as “about 60%”. Moreover, the “vascular disrupting effect after oral administration” value in series [4] was “occurred to same extent as seen after i.p. application”.
The term IC50 denotes the concentration needed to halve the response being measured. With `COc1ccc(-c2c(-c3cc(Cl)c(OC)c(OC)c3)ncn2C)cc1N` [compound 5b, 1-methyl-5-(3-amino-4-methoxyphenyl)-4-(3-chloro-4,5-dimethoxyphenyl)-imidazole], the solubility in series [5] was at least 10 mM. Further, the “chemical stability in solution (activity retained)” value in series [6] was “No loss of activity; also recorded: persistence of efficacy; also recorded: high, unattenuated activity and efficacy”. The “inhibition of tubulin polymerization” value in the series on tubulin is “effectively inhibits the polymerization of tubulin”. In addition, the IC50 in series [7] was in the range of 30 to 50 nM. Moreover, in series [1] (healthy mice, ascending range of doses), the toxicity profile entry is “very well tolerated by the mice even at relatively high concentrations”. In series [1] (single dose 40 mg/kg oral), the “toxicity after oral administration” value is “No signs of toxicity were observed”. For the same molecule, the “apoptotic (TUNEL-positive) cells” value in the series with HL-60 cells [3] was “about 60%”.
